Experimental data as given in patent US4723008A, “Isoprenylamine derivatives” (priority 1981, dated 1988).

Tested on: vaccinia virus (vero cells)
Experiment: not given
Assay type: cell-based
Details: 50 n molar concentration

SMILES | Anti-vaccinia virus activity (Plaque inhibition rate %)
CC(C)=CCCC(C)=CCCC(C)=CCCC(C)=CCCC(C)=CCCC(C)=CCCC(C)=CCCC(C)=CCCC(C)=CCCC(C)=CCN(Cc1ccccc1)CC(O)CN(CCO)CCO (stereo not shown) [drawing 83] | 10.6%
CC(C)=CCCC(C)=CCCC(C)=CCCC(C)=CCCC(C)=CCCC(C)=CCCC(C)=CCCC(C)=CCCC(C)=CCCC(C)=CCN(CCO)Cc1ccccc1 [drawing 84] | 14.1%

Tested on: Human interferon (normal diploid cells (fibroblast) originated from human being)
Experiment: Human interferon inducing activity (in vitro), 3H-uridine-uptake inhibition
Assay type: cell-based
Details: 25 n molar suspension
Experimental: (5) Human interferon inducing activity (in vitro)
Interferon was induced according to the method of Edward A. Havell et al. by treating normal diploid cells (fibroblast) originated from human being with each test compound in the form of ethanol solution diluted with PBS (--), (25 n molar suspension). Using the radioisotope microassay method or H. Ishitsuka et al., interferon was measured in terms of 3H-uridine-uptakeinhibition rate.

SMILES | Human interferon 3H-uridine-uptake inhibition rate (%)
CC(C)=CCCC(C)=CCCC(C)=CCCC(C)=CCCC(C)=CCCC(C)=CCCC(C)=CCCC(C)=CCCC(C)=CCN(CCc1ccccc1)CC(O)CN1CCN(CCO)CC1 (stereo not shown) [drawing 72] | 17.4%
CC(C)=CCCC(C)=CCCC(C)=CCCC(C)=CCCC(C)=CCCC(C)=CCCC(C)=CCCC(C)=CCCC(C)=CCN(Cc1ccccc1)Cc1ccccc1 [drawing 73] | 4.4%
CC(C)=CCCC(C)=CCCC(C)=CCCC(C)=CCCC(C)=CCCC(C)=CCCC(C)=CCCC(C)=CCCC(C)=CCN(CCc1ccccc1)CC(O)CNC(C)(C)C (stereo not shown) [drawing 71] | 32.6%
CC(C)=CCCC(C)=CCCC(C)=CCCC(C)=CCCC(C)=CCCC(C)=CCCC(C)=CCCC(C)=CCCC(C)=CCCC(C)=CCN1CCN(Cc2ccccc2)CC1 [drawing 78] | 3.6%
CC(C)=CCCC(C)=CCCC(C)=CCCC(C)=CCCC(C)=CCCC(C)=CCCC(C)=CCCC(C)=CCCC(C)=CCCC(C)=CCN1CCOCCOCCNCCOCCOCC1 [drawing 67] | 28.3%
CC(C)=CCCC(C)=CCCC(C)=CCCC(C)=CCCC(C)=CCCC(C)=CCCC(C)=CCCC(C)=CCCC(C)=CCN(CCO)Cc1ccccc1 [drawing 74] | 5.1%
CC(C)=CCCC(C)=CCCC(C)=CCCC(C)=CCCC(C)=CCCC(C)=CCCC(C)=CCCC(C)=CCCC(C)=CCCC(C)=CCN(CCO)Cc1ccccc1 [drawing 79] | 25.4%
CC(C)=CCCC(C)=CCCC(C)=CCCC(C)=CCCC(C)=CCCC(C)=CCCC(C)=CCCC(C)=CCCC(C)=CCCC(C)=CCN(CCO)CC(O)c1ccccc1 (stereo not shown) [drawing 68] | 4.3%
CC(C)=CCCC(C)=CCCC(C)=CCCC(C)=CCCC(C)=CCCC(C)=CCCC(C)=CCCC(C)=CCCC(C)=CCCC(C)=CCN(Cc1ccccc1)CC(O)CNC(C)(C)C (stereo not shown) [drawing 70] | 59.8%
COc1ccc(CN(CC=C(C)CCC=C(C)C)CC=C(C)CCC=C(C)C)cc1OC | 68.4%
CC(C)=CCCC(C)=CCCC(C)=CCCC(C)=CCCC(C)=CCCC(C)=CCCC(C)=CCCC(C)=CCCC(C)=CCCC(C)=CCN(Cc1ccccc1)CC(O)CN(CCO)CCO (stereo not shown) [drawing 69] | 61.3%

Tested on: tumor cells KN7 -8
Experiment: Anti-tumor activity (survivors on the 30th day)
Assay type: in vivo, Balb/c male mice
Details: 30 mg/kg intraperitoneally 3 times (24 hours before, second and fifth day after inoculation of 5×10^5 cells); survivors/group
Excerpt: Groups, each consisting of Balb/c male mice weighing about 20 g, were intraperitoneally administered 5×10^5 of tumor cells KN7 -8.

SMILES | Anti-tumor activity (Survivor on the 30th day)
CC(C)=CCCC(C)=CCCC(C)=CCCC(C)=CCCC(C)=CCCC(C)=CCCC(C)=CCCC(C)=CCCC(C)=CCN(CCCN)CCCN | 4/6
CC(C)=CCCC(C)=CCCC(C)=CCCC(C)=CCCC(C)=CCCC(C)=CCCC(C)=CCCC(C)=CCCC(C)=CCCC(C)=CCN(Cc1ccccc1)CC(O)CN(CCO)CCO (stereo not shown) [drawing 57] | 1/6
CC(C)=CCCC(C)=CCCC(C)=CCCC(C)=CCCC(C)=CCCC(C)=CCCC(C)=CCCC(C)=CCCC(C)=CCN(CCc1ccccc1)CC(O)CN1CCN(CCO)CC1 (stereo not shown) [drawing 59] | 4/6
CC(C)=CCCC(C)=CCCC(C)=CCCC(C)=CCCC(C)=CCCC(C)=CCCC(C)=CCCC(C)=CCCC(C)=CCCC(C)=CCN1CCOCCOCCNCCOCCOCC1 [drawing 56] | 3/6
CC(C)=CCCC(C)=CCCC(C)=CCCC(C)=CCCC(C)=CCCC(C)=CCCC(C)=CCCC(C)=CCCC(C)=CCCC(C)=CCN(Cc1ccccc1)CC(O)CNC(C)(C)C (stereo not shown) [drawing 58] | 2/6

Tested on: vaccinia virus
Experiment: not given
Assay type: in vivo, vaccinia virus; ICR female mice
Details: 50 mg/kg intraperitoneally 24 hours before inoculation; lesions counted on 8th day

SMILES | Prevention from vaccinia infection (Pock inhibition rate %)
COc1ccc(CN(CC=C(C)CCC=C(C)CCC=C(C)CCC=C(C)CCC=C(C)CCC=C(C)CCC=C(C)CCC=C(C)CCC=C(C)CCC=C(C)C)CC=C(C)CCC=C(C)CCC=C(C)CCC=C(C)CCC=C(C)CCC=C(C)CCC=C(C)CCC=C(C)CCC=C(C)CCC=C(C)C)cc1 | 38.8%
CC(C)=CCCC(C)=CCCC(C)=CCCC(C)=CCCC(C)=CCCC(C)=CCCC(C)=CCCC(C)=CCCC(C)=CCN(CCO)Cc1ccccc1 [drawing 44] | 53.4%
CC(C)=CCCC(C)=CCCC(C)=CCCC(C)=CCCC(C)=CCCC(C)=CCCC(C)=CCCC(C)=CCCC(C)=CCCC(C)=CCN1CCN(Cc2ccccc2)CC1 [drawing 48] | 64.0%
CC(C)=CCCC(C)=CCCC(C)=CCCC(C)=CCCC(C)=CCCC(C)=CCCC(C)=CCCC(C)=CCCC(C)=CCN(Cc1ccccc1)Cc1ccccc1 [drawing 43] | 50.3%
CC(C)=CCCC(C)=CCCC(C)=CCCC(C)=CCCC(C)=CCCC(C)=CCCC(C)=CCCC(C)=CCCC(C)=CCCC(C)=CCN(CCO)Cc1ccccc1 [drawing 49] | 38.4%
CC(C)=CCCC(C)=CCCC(C)=CCCC(C)=CCCC(C)=CCCC(C)=CCCC(C)=CCCC(C)=CCCC(C)=CCN(CCc1ccccc1)CC(O)CNC(C)(C)C (stereo not shown) [drawing 41] | 82.9%
CC(C)=CCCC(C)=CCCC(C)=CCCC(C)=CCCC(C)=CCCC(C)=CCCC(C)=CCCC(C)=CCCC(C)=CCN(CCc1ccccc1)CC(O)CN1CCN(CCO)CC1 (stereo not shown) [drawing 42] | 85.6%
COc1ccc(CN(CC=C(C)CCC=C(C)CCC=C(C)CCC=C(C)CCC=C(C)CCC=C(C)CCC=C(C)CCC=C(C)CCC=C(C)C)CC=C(C)CCC=C(C)CCC=C(C)CCC=C(C)CCC=C(C)CCC=C(C)CCC=C(C)CCC=C(C)CCC=C(C)C)cc1OC | 32.4%
CC(C)=CCCC(C)=CCCC(C)=CCCC(C)=CCCC(C)=CCCC(C)=CCCC(C)=CCCC(C)=CCCC(C)=CCN(CC=C(C)CCC=C(C)CCC=C(C)CCC=C(C)CCC=C(C)CCC=C(C)CCC=C(C)CCC=C(C)CCC=C(C)C)CCCCc1ccccc1 | 34.1%
CC(C)=CCCC(C)=CCCC(C)=CCCC(C)=CCCC(C)=CCCC(C)=CCCC(C)=CCCC(C)=CCCC(C)=CCCC(C)=CCN(CCO)CC(O)c1ccccc1 (stereo not shown) [drawing 38] | 60.1%
CC(C)=CCCC(C)=CCCC(C)=CCCC(C)=CCCC(C)=CCCC(C)=CCCC(C)=CCCC(C)=CCCC(C)=CCCC(C)=CCN1CCOCCOCCNCCOCCOCC1 [drawing 37] | 57.1%

Tested on: not listed separately
Experiment: Toxicity, 50% lethal dose, intravenous
Details: mouse, in vivo, ddY male mice, read-out: LD50 (Intravenous administration mg/kg)
Excerpt: Using ddY male mice weighing 20-25 g, 50% lethal dose of each test compound intravenously administered was obtained, the results of which are shown in Table 6.

SMILES | LD50
CC(C)=CCCC(C)=CCCC(C)=CCCC(C)=CCCC(C)=CCCC(C)=CCCC(C)=CCCC(C)=CCCC(C)=CCN(CCO)Cc1ccccc1 [drawing 66] | 791 mg/kg
CC(C)=CCCC(C)=CCCC(C)=CCCC(C)=CCCC(C)=CCCC(C)=CCCC(C)=CCCC(C)=CCCC(C)=CCCC(C)=CCN(CCO)CC(O)c1ccccc1 (stereo not shown) [drawing 62] | 258 mg/kg
CC(C)=CCCC(C)=CCCC(C)=CCCC(C)=CCCC(C)=CCCC(C)=CCCC(C)=CCCC(C)=CCCC(C)=CCN(CCc1ccccc1)CC(O)CNC(C)(C)C (stereo not shown) [drawing 64] | 28 mg/kg
CC(C)=CCCC(C)=CCCC(C)=CCCC(C)=CCCC(C)=CCCC(C)=CCCC(C)=CCCC(C)=CCCC(C)=CCCC(C)=CCN(Cc1ccccc1)CC(O)CN(CCO)CCO (stereo not shown) [drawing 63] | 162 mg/kg
CC(C)=CCCC(C)=CCCC(C)=CCCC(C)=CCCC(C)=CCCC(C)=CCCC(C)=CCCC(C)=CCCC(C)=CCN(CCc1ccccc1)CC(O)CN1CCN(CCO)CC1 (stereo not shown) [drawing 65] | 338 mg/kg
